# Reference: patent US7799794B2, “Treatment for cardiovascular disease” (Merck Sharp & Dohme Corp., priority 2000, dated 2010)
# Marks after values point to notes of the source that are not given here.
# Key:
# Sprague-Dawley rats [1] = test: Cyclosporine nephropathy with or without oxonic acid: body weight, renal function, uric acid, CSA level (Example 5); details: 7 weeks
# Procedure: Studies were conducted in 20 adult male Sprague-Dawley rats (Simmonsen Laboratories, Gilroy, Calif., USA) weighing 200 to 250 grams. All rats were fed a low salt diet (0.125% NaCl)(Zeigler Bros, Gardners, Pa.), with water ad libitum. […] In order to induce hyperuricemia, oxonic acid 2% was added to low salt diet. Because rats have uricase, an hepatic enzyme which degrades uric acid to allantoin, the blockade of this enzyme by oxonic acid is necessary.
# After 7 weeks, rats were placed in individual metabolic cages for 24-hour urine collection. The following day, rats were anesthetized with xylazine and ketamine, serum was collected for creatinine and uric acid measurements, and both kidneys were obtained for histology evaluation. Biopsies were fixed in 10% formalin, 100% ethanol or Methyl Camoy's.
# Serum and urine creatinine were measured by a standard picric acid method (Sigma Diagnostics creatinine kit, St. Louis, Mo.). Serum and urine uric acid were measured by a modified carbonate-phosphotungstate method [Henry, R. J., Sobel, C., and Kim, J., A modified carbonate phosphotungstate method for the determination of uric acid and comparison with the spectophotometric uricase method. Am J Clin Pathol 1957; 28:152.]. Fractional uric acid excretion and creatinine clearance were calculated by standard formulas.
# All values are expressed as mean±SD, unless otherwise stated. The differences between groups were compared with unpaired Student's t tests.
# Sprague-Dawley rats [2] = test: Mild hyperuricemia model: 2% oxonic acid on normal salt diet (Example 1); format: in vivo, rat
# Procedure: All studies utilized adult male Sprague-Dawley rats (Simonsen Laboratories, Gilroy Calif.)(200-250 g).
# Rats were placed on a normal salt (NaCl 0.26%) diet with or without 2% oxonic acid (Ziegler Bros, Gardners, Pa.) added to the diet and rats were sacrificed at week 7.
# Am J Physiol 268:F1164-76, 1995].
# (§1) Am J Clin Pathol 1957; 28:152.]. Serum blood urea nitrogen was measured by a standard kit (Sigma, St Louis, Mo.).
# (§2) Renal biopsies were fixed in Methyl-Carnoy's, 10% formalin or 100% ethanol and embedded in paraffin. The presence of uric acid crystals was evaluated by staining 4-μm ethanol-fixed sections with de Galantha and modified Von Kossa stains. Kidney tissue from rats with acute uric acid nephropathy, induced with oxonic acid and uric acid administration was used as a positive control [Stavric, B., Johnson, W. J., and Grice, H. C., Uric acid nephropathy: An experimental model, Proc. Soc. Exp. Biol. Med. 130: 512-16 (1969).]. Light microscopy was performed in 4-μm sections of Methyl-Carnoy's fixed tissue stained with periodic acid Schiff (PAS) reagent or with hematoxylin and eosin.
# Sprague-Dawley rats [3] = test: Renal findings at 7 weeks: immunohistochemistry and BUN (Example 2); format: in vivo, rat; details: low NaCl diet
# Procedure: Rats were placed on a low sodium diet (NaCl, 0.125%) with or without 2% oxonic acid for 7 weeks. A third group were administered allopurinol in the drinking water (150 mg/L) with weekly adjustments of the dose depending on the uric acid level.
# as §1, §2
# Methyl-Carnoy's fixed tissue sections were analyzed by indirect immunoperoxidase [Lombardi, D., Gordon , K. L., Polinsky, P., Suga, S., Schwartz, S. M., and Johnson, R. J. Salt sensitive hypertension develops after transient exposure to angiotensin II. Hypertension 33:1013-1019, 1999] staining with the following primary antibodies: OP199, a goat polyclonal antibody against osteopontin (OPN)(gift of C. Giachelli, Univ of Wash., Seattle); ED-1, a monoclonal antibody to rat monocytes and macrophages (Serotec); goat antihuman type III collagen (Southern Biotechnology Associates Inc, Birminghan Ala.); and anti-renin, a mouse antibody to human renin (Sanofi Recherche, Montpellier, France). Sections were incubated with a secondary antibody followed by horseradish peroxidase-conjugated avidin D (Vector Laboratories, Burlingame, Calif.), diaminobenzidine (Sigma) with or without nickel chloride as a chromogen, and counsterstained with methyl green.
# NOS1 was detected on formalin fixed tissue sections with a rabbit anti-rat neuronal nitric oxide synthase (Transduction Laboratories, Lexington, Ky.), followed by a biotinylated secondary antibody, diaminobenzidine with nickel chloride and counterstained with nuclear fast red.
# All quantification was performed blinded. The tubular expression of osteopontin (OPN), which is a sensitive marker of tubulointerstitial injury, was calculated as the percent of renal cortex occupied by OPN-positive tubules [Lombardi, D., Gordon, K. L., Polinsky, P., Suga, S., Schwartz, S. M., and Johnson, R. J. Salt sensitive hypertension develops after transient exposure to angiotensin II. Hypertension 33:1013-1019, 1999]. Utilizing computer-assisted image analysis software (Optimas V6.2, Media Cybernetics, Silver Springs, Md.) and digitized images, the percent of area occupied by OPN positive tubules per 4 mm^2 field at a magnification of 50× was measured and the mean percent area calculated for each biopsy. The interstitial deposition of collagen type III was calculated as the % of renal cortex occupied by collagen III, noted by immunostaining, by computer image analysis. The mean number of interstitial macrophages (ED-1+cells) in each biopsy was calculated in a blinded manner by counting the total number of positive interstitial cortical cells in 20 sequentially selected 0.25 mm^2 grids at 200× magnification. Renin expression was quantified by the number of glomeruli with positive staining for juxtaglomerular renin using a minimum of 100 glomeruli in each biopsy as previously described [Eng, E., et al., Renal proliferation and phenotypic changes in rats with two-kidney, one-clip Goldblatt hypertension. Am J Hypertens 7:177-185 (1994)]; this has been shown previously to correlate with intrarenal renin content[Eng, E., et al., Renal proliferation and phenotypic changes in rats with two-kidney, one-clip Goldblatt hypertension. Am J Hypertens 7:177-185 (1994)]. […]
smiles,measurement,setting,value
O=C(O)c1nc(=O)[nH]c(=O)[nH]1 [oxonic acid],urinary uric acid,"Sprague-Dawley rats [1]; 24-hour urine, vehicle 2.19 ± 0.66",5.06 ± 2.81^a mg/day
same,Serum Uric Acid,"Sprague-Dawley rats [1]; mean±SD, vehicle 1.62 ± 0.31",4.08 ± 1.22^a mg/dl
same,Weight,"Sprague-Dawley rats [1]; mean±SD, vehicle 422.2 ± 31.2",421.2 ± 28.8 grams
same,FE urate (fractional excretion of uric acid),Sprague-Dawley rats [1]; vehicle 0.12 ± 0.06,0.11 ± 0.14
same,Urate/creatinine (urine),Sprague-Dawley rats [1]; vehicle 0.20 ± 0.08,0.35 ± 0.27
same,Serum Creatinine,Sprague-Dawley rats [1]; vehicle 0.94 ± 0.24,0.88 ± 0.19 mg/dL
same,Creatnine Clearance,Sprague-Dawley rats [1]; vehicle 1.39 ± 0.73,1.94 ± 0.73 mL/min
same,body weight at the end of the study,"Sprague-Dawley rats [2]; 2% oxonic acid diet, normal salt diet, 7 weeks, control 394±18",367.6 ± 17 g
same,urinary uric acid,Sprague-Dawley rats [2]; 2% oxonic acid in the diet,increased two-fold
same,special stains for uric acid crystals in kidney,"Sprague-Dawley rats [2]; 2% oxonic acid, 7 weeks",negative
same,Renin,Sprague-Dawley rats [3]; control 39.6 ± 2.0,60.9 ± 1.5 % positive JGA
same,NOS-1,Sprague-Dawley rats [3]; control 147.2 ± 12.4,80.4 ± 4.3 positive cells/100 glomeruli
same,OPN,"Sprague-Dawley rats [3]; mean±SE, control 0.9 ± 0.06",1.8 ± 0.06 % increase
same,Type III collagen,"Sprague-Dawley rats [3]; mean±SE, control 5.4 ± 0.3",8.8 ± 1.5 %
same,BUN,"Sprague-Dawley rats [3]; mean±SE, control 14.4 ± 1.2",23.2 ± 2.3 mg/dL
same,ED-1 (macrophages),"Sprague-Dawley rats [3]; mean±SE, control 18.3 ± 1.3",27.2 ± 1.9 cells/mm2
